The values below come from US8071584B2 (GlaxoSmithKline LLC, priority 2007, dated 2011).

The subject of this experiment is human monocyte stimulated cytokine production (TNF-α). Description: Monocyte assay (LPS-stimulated TNF-α production). Format: cell-based. To be noted: for IC50: human CD14+ monocytes, 200 ng/mL LPS, 24 hrs, values given as 'about', read-out: pIC50 in the monocyte assay (converted); for inhibition at 0.3 µM: 300 nM, human monocytes, LPS. How it is done:
Effect of IKK-β inhibition on human monocyte stimulated cytokine production was assessed as follows: Monocytes were isolated from heparinized whole blood by Ficoll gradient, followed by purification of CD14+ cells using MACS magnetic cell separation beads. Isolated monocytes were then adhered to 96-well culture plates at 1×10^6 cells/mL in RPMI 1640 10% FBS (JRH Biosciences, Lenexa Kans.) for 2 h. Test compounds are added to the wells 30 minutes prior to stimulation with a final vehicle concentration of 0.1% DMSO. Monocytes were activated by the addition of 200 ng/mL endotoxin (LPS; E. coli serotype 026:B6) (Sigma, St. Louis, Mo.) and incubated for 24 hrs at 37 C. Cell-free supernates were analyzed by Alphascreen™ (Perkin Elmer, Waltham, Mass.) for TNF-α using R&D Systems matched pair Abs. Viability of the cells was determined by 10% trypan blue exclusion.

Structures are written as SMILES.

On to `NC(=O)c1cc(-c2ccsc2)cc2c(C3CCCS(=O)(=O)C3)c[nH]c12` (stereo not shown) [Example 219, 3-(1,1-Dioxidotetrahydro-2H-thiopyran-3-yl)-5-(3-thienyl)-1H-indole-7-carboxamide], for which the IC50 was 5.01 to 1000 nM. Turning to `NC(=O)c1cc(-c2ccc(F)cc2)cc2c(C3CCCS(=O)(=O)C3)c[nH]c12` (stereo not shown) [Example 220, 3-(1,1-Dioxidotetrahydro-2H-thiopyran-3-yl)-5-(4-fluorophenyl)-1H-indole-7-carboxamide], the inhibition (in general, the drop in the measured response relative to a control, in per cent) at 0.3 µM is 0 to 100%.

Regarding `NC(=O)c1cc(-c2ccccc2)cc2c(C3CCCS(=O)(=O)C3)c[nH]c12` (stereo not shown) [Example 221, 3-(1,1-Dioxidotetrahydro-2H-thiopyran-3-yl)-5-phenyl-1H-indole-7-carboxamide], the inhibition at 0.3 µM is 0 to 100%. `NC(=O)c1cc(-c2cccs2)cc2c(C3CCCS(=O)(=O)C3)c[nH]c12` (stereo not shown) [Example 222, 3-(1,1-Dioxidotetrahydro-2H-thiopyran-3-yl)-5-(2-thienyl)-1H-indole-7-carboxamide] gave an inhibition at 0.3 µM of 0 to 100%.

Turning to `CC1(C)C[C@@H](c2c[nH]c3c(C(N)=O)cc(-c4ccc(F)cc4)cc23)CCS1(=O)=O` [Example 224, 3-[(4S)-2,2-Dimethyl-1,1-dioxidotetrahydro-2H-thiopyran-4-yl]-5-(4-fluorophenyl)-1H-indole-7-carboxamide], the IC50 is greater than 1000 nM. Same read-out and setting: the result for `CC1(C)C[C@H](c2c[nH]c3c(C(N)=O)cc(-c4ccc(F)cc4)cc23)CCS1(=O)=O` [Example 225, 3-[(4R)-2,2-dimethyl-1,1-dioxidotetrahydro-2H-thiopyran-4-yl]-5-(4-fluorophenyl)-1H-indole-7-carboxamide] reads 5.01 to 1000 nM. Consider `CC1(C)CC(c2c[nH]c3c(C(N)=O)cc(-c4ccccc4)cc23)CCS1(=O)=O` (stereo not shown) [Example 226, 3-(2,2-Dimethyl-1,1-dioxidotetrahydro-2H-thiopyran-4-yl)-5-phenyl-1H-indole-7-carboxamide], for which the IC50 is 5.01 to 1000 nM. In the case of `CC1(C)CC(c2c[nH]c3c(C(N)=O)cc(-c4ccsc4)cc23)CCS1(=O)=O` (stereo not shown) [Example 227, 3-(2,2-Dimethyl-1,1-dioxidotetrahydro-2H-thiopyran-4-yl)-5-(3-thienyl)-1H-indole-7-carboxamide], the IC50 was 5.01 to 1000 nM. For `CC1(C)CC(c2c[nH]c3c(C(N)=O)cc(-c4ccoc4)cc23)CCS1(=O)=O` (stereo not shown) [Example 228, 3-(2,2-Dimethyl-1,1-dioxidotetrahydro-2H-thiopyran-4-yl)-5-(3-furanyl)-1H-indole-7-carboxamide], the IC50 is 5.01 to 1000 nM.

Compound `CC1(C)CC(c2c[nH]c3c(C(N)=O)cc(-c4csc(CN5CCCCCC5)c4)cc23)CCS1(=O)=O` (stereo not shown) [Example 231, 3-(2,2-Dimethyl-1,1-dioxidotetrahydro-2H-thiopyran-4-yl)-5-[5-(hexahydro-1H-azepin-1-ylmethyl)-3-thienyl]-1H-indole-7-carboxamide] had an inhibition at 0.3 µM of 0 to 100%. On to `CN(C)Cc1cc(-c2cc(C(N)=O)c3[nH]cc(C4CCS(=O)(=O)C(C)(C)C4)c3c2)cs1` (stereo not shown) [Example 232, 5-{5-[(Dimethylamino)methyl]-3-thienyl}-3-(2,2-dimethyl-1,1-dioxidotetrahydro-2H-thiopyran-4-yl)-1H-indole-7-carboxamide], for which the IC50 was 5.01 to 1000 nM.

Take `CC1(C)CC(c2c[nH]c3c(C(N)=O)cc(-c4csc(CN5CCC5)c4)cc23)CCS1(=O)=O` (stereo not shown) [Example 234, 5-[5-(1-Azetidinylmethyl)-3-thienyl]-3-(2,2-dimethyl-1,1-dioxidotetrahydro-2H-thiopyran-4-yl)-1H-indole-7-carboxamide]: the IC50 is 5.01 to 1000 nM.

Regarding `CC1(C)CC(c2c[nH]c3c(C(N)=O)cc(-c4ccc(CN5CCCC5)s4)cc23)CCS1(=O)=O` (stereo not shown) [Example 235, 3-(2,2-Dimethyl-1,1-dioxidotetrahydro-2H-thiopyran-4-yl)-5-[5-(1-pyrrolidinylmethyl)-2-thienyl]-1H-indole-7-carboxamide], the IC50 is 5.01 to 1000 nM.

In the case of `CC1(C)CC(c2c[nH]c3c(C(N)=O)cc(-c4ccc(S(=O)(=O)N5CCCC5)s4)cc23)CCS1(=O)=O` (stereo not shown) [Example 239, 3-(2,2-Dimethyl-1,1-dioxidotetrahydro-2H-thiopyran-4-yl)-5-[5-(1-pyrrolidinylsulfonyl)-2-thienyl]-1H-indole-7-carboxamide], the IC50 was 5.01 to 1000 nM.

On to `CC1(C)CC(c2c[nH]c3c(C(N)=O)cc(-c4ccc(S(=O)(=O)C5CCCC5)s4)cc23)CCS1(=O)=O` (stereo not shown) [Example 240, 5-[5-(Cyclopentylsulfonyl)-2-thienyl]-3-(2,2-dimethyl-1,1-dioxidotetrahydro-2H-thiopyran-4-yl)-1H-indole-7-carboxamide], for which the IC50 is 5.01 to 1000 nM. `NC(=O)c1cc(-c2ccsc2)cc2c([C@@H]3CCS(=O)(=O)[C@H](c4ccccc4)C3)c[nH]c12` [Example 247, 3-[(2S,4R)1,1-dioxido-2-phenyltetrahydro-2H-thiopyran-4-yl]-5-(3-thienyl)-1H-indole-7-carboxamide]: the IC50 is 5.01 to 1000 nM. For the compound `NC(=O)c1cc(-c2ccsc2)cc2c([C@H]3CCS(=O)(=O)[C@@H](c4ccccc4)C3)c[nH]c12` [Example 248, 3-[(2R,4S)1,1-dioxido-2-phenyltetrahydro-2H-thiopyran-4-yl]-5-(3-thienyl)-1H-indole-7-carboxamide], the IC50 is greater than 1000 nM.

`NC(=O)c1cc(-c2ccoc2)cc2c(CC3CCS(=O)(=O)CC3)c[nH]c12` [Example 253, 3-[(1,1-dioxidotetrahydro-2H-thiopyran-4-yl)methyl]-5-(3-furanyl)-1H-indole-7-carboxamide]: the IC50 is 5.01 to 1000 nM. On to `NC(=O)c1cc(-c2csc(CN3CCCCCC3)c2)cc2c(CC3CCS(=O)(=O)CC3)c[nH]c12` [Example 258, 3-[(1,1-dioxidotetrahydro-2H-thiopyran-4-yl)methyl]-5-[5-(hexahydro-1H-azepin-1-ylmethyl)-3-thienyl]-1H-indole-7-carboxamide], for which the IC50 is 5.01 to 1000 nM. The same measure, in the same setting: the same measure for `NC(=O)c1cc(-c2ccccc2)cc2c(CC3CCS(=O)(=O)C3)c[nH]c12` (stereo not shown) [Example 259, 3-[(1,1-Dioxidotetrahydro-3-thienyl)methyl]-5-phenyl-1H-indole-7-carboxamide]: 5.01 to 1000 nM; for `NC(=O)c1cc(-c2ccsc2)cc2c(CC3CCS(=O)(=O)C3)c[nH]c12` (stereo not shown) [Example 260, 3-[(1,1-Dioxidotetrahydro-3-thienyl)methyl]-5-(3-thienyl)-1H-indole-7-carboxamide]: 5.01 to 1000 nM; for `CN(C)Cc1cc(-c2cc(C(N)=O)c3[nH]cc(CC4CCS(=O)(=O)C4)c3c2)cs1` (stereo not shown) [Example 261, 5-{5-[(Dimethylamino)methyl]-3-thienyl}-3-[(1,1-dioxidotetrahydro-3-thienyl)methyl]-1H-indole-7-carboxamide]: 5.01 to 1000 nM.
